Results reported in PMC3257251, “A Whole Cell Assay to Measure Caspase-6 Activity by Detecting Cleavage of Lamin A/C” (PLoS ONE, 2012).
Peptide text beside a SMILES is read from it.

Tested on: VEIDase activity in SKNAS cells
Experiment: Caspase-Glo 6 assay (lysate based)
Format: cell-based, human
Settings: 3 µM staurosporine for 6 hours, lysate based readout, read-out: IC50 for inhibition of VEIDase activity, Caspase-Glo 6 assay
Procedure: SKNAS cells were plated at a density of 20,000 cells per well into 384-well black clear-bottom cell culture plates in 20 µl/well growth medium and allowed to adhere overnight. The following day, 5 µl of peptide inhibitor diluted in growth medium was delivered to each well 30 minutes prior to addition of 5 µl/well staurosporine in growth medium. The final DMSO concentration in the assay was 0.1% and the final staurosporine concentration was 3 µM. Following 6 hours incubation at 37°C, Caspase-Glo® 6 reagents (Promega; Madison, WI) were prepared according to manufacturer's recommendation, and 30 µl was added directly to each well, followed by 1 hour incubation at 37°C and luminescence recording using a Perkin Elmer Envision.

Q: Which IC50 does the source give for `CC(=O)N[C@@H](CC(=O)O)C(=O)N[C@@H](CCC(=O)O)C(=O)N[C@H](C(=O)N[C@H](C=O)CC(=O)O)C(C)C` [Ac-DEVD-CHO] here?
A: 1490 nM

Q: Which IC50 does the source give for `CC[C@H](C)[C@H](NC(=O)[C@H](CCC(=O)O)NC(=O)[C@@H](NC(C)=O)C(C)C)C(=O)N[C@H](C=O)CC(=O)O` [Ac-VEID-CHO] (Ac-VEID-aldehyde) here?
A: 490 nM

Tested on: SKNAS cells
Experiment: LDH release assay
Format: cell-based, human
Settings: 30 µM staurosporine
Procedure: SKNAS cells were plated at a density of 20,000 cells per well into 384-well black clear-bottom cell culture plates in 20 µl/well growth medium and allowed to adhere overnight. The following day, 5 µl staurosporine diluted in growth medium was delivered to each well and incubated for the indicated time in a cell culture incubator. The final DMSO concentration in the assay was 0.1%. At each timepoint, lactate dehydrogenase (LDH) activity was measured in cell supernatants using a colorimetric LDH activity measurement kit (BioVision; Mountain View, CA) according to manufacturer's recommendation by measuring absorbance at 450 nm using a Spectramax platereader (Molecular Devices; Sunnyvale, CA).

Q: For `CN[C@@H]1C[C@H]2O[C@@](C)([C@@H]1OC)n1c3ccccc3c3c4c(c5c6ccccc6n2c5c31)C(=O)NC4` [staurosporine], which “treatment time required for the same degree of LDH release” value is on record?
A: 4 h

Same assay, conditions: after 6 hours of treatment

Q: With `CN[C@@H]1C[C@H]2O[C@@](C)([C@@H]1OC)n1c3ccccc3c3c4c(c5c6ccccc6n2c5c31)C(=O)NC4` [staurosporine] as the molecule, how does the “staurosporine concentration at which LDH release is detected above background levels” value read?
A: ~4 µM

Target: T1, Caspase-6 (Homo sapiens, UniProt P55212)
T1 sequence (P55212 24-179 limits assumed): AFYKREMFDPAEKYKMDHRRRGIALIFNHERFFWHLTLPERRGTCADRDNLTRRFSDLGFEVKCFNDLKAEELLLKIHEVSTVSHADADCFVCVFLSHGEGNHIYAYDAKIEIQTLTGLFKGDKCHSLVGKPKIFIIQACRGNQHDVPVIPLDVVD
T1 sequence (P55212 194-293 limits assumed): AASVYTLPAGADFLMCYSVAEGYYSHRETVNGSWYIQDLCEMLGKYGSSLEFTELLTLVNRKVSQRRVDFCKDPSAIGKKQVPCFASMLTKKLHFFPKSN
Experiment: Enzymatic caspase activity assay, (Ac-VEID)2-Rh110 substrate
Settings: read-out: Enzymatic Caspase-6 IC50; 15 minute enzyme/inhibitor preincubation and 40 minute enzyme reaction
Procedure: (§1) All peptide inhibitors were serially diluted in DMSO prior to cross dilution in assay buffer (50 mM HEPES pH 7.2, 25 mM MgSO4, 0.5 mM EGTA, 5 mM Glutathione, 0.01% Triton X-100 containing 0.1% Bovine Gamma Globulin (BGG)). […] Rhodamine-labeled bivalent tetrapeptide substrates were obtained from Anaspec (Fremont, CA) and used as follows: 300 pM caspase-3 reacted with 1 µM (Ac-DEVD)2 -Rh110, 1 nM caspase-6 reacted with 5 µM (Ac-VEID)2 -Rh110, 5 pM caspase-7 reacted with 1 µM (Ac-DEVD)2 -Rh110. Enzyme and inhibitor were preincubated for 15 minutes prior to the addition of substrate to initiate the enzymatic reaction.

Q: `CC(=O)N[C@@H](CC(=O)O)C(=O)N[C@@H](CCC(=O)O)C(=O)N[C@H](C(=O)N[C@H](C=O)CC(=O)O)C(C)C` [Ac-DEVD-CHO] was tested. Which IC50 did it give?
A: 31 nM

Q: With `CC(C)[C@H](NC(=O)c1ccc2ccccc2n1)C(=O)N[C@@H](CC(=O)O)C(=O)COc1c(F)cccc1F` [Q-VD-OPh] as the molecule, how does the IC50 read?
A: 156 nM

Q: For `COC(=O)CC[C@H](NC(=O)[C@H](CC(=O)OC)NC(=O)OCc1ccccc1)C(=O)N[C@H](C(=O)N[C@@H](CC(=O)OC)C(=O)CF)C(C)C` [z-DEVD-FMK], which IC50 is on record?
A: 402 nM

Same assay, conditions: read-out: Mean IC50 Caspase-6; apparent IC50; 15 minute enzyme/inhibitor preincubation and 40 minute enzyme reaction; 1 nM caspase-6, 5 µM (Ac-VEID)2-Rh110

Q: Which IC50 does the source give for `CC(=O)N[C@@H](CC(=O)O)C(=O)N[C@@H](CCC(=O)O)C(=O)N[C@H](C(=O)N[C@H](C=O)CC(=O)O)C(C)C` [Ac-DEVD-CHO] here?
A: 30.5 nM

Q: For `COC(=O)CC[C@H](NC(=O)[C@H](CC(=O)OC)NC(=O)OCc1ccccc1)C(=O)N[C@H](C(=O)N[C@@H](CC(=O)OC)C(=O)CF)C(C)C` [z-DEVD-FMK], which IC50 is on record?
A: 402 nM

Target: T2, caspase-6 cleavage of lamin A/C in SKNAS cells (Homo sapiens, UniProt P55212)
T2 construct: monitors cellular caspase-6 cleavage of endogenous lamin A/C under apoptotic conditions; endogenous in cells; host or cells: SKNAS (ATCC #CRL-2137)
T2 sequence (P55212 24-179 limits assumed): T1 sequence (P55212 24-179 limits assumed)
T2 sequence (P55212 194-293 limits assumed): T1 sequence (P55212 194-293 limits assumed)
Experiment: Cell-based ELISA for cleaved lamin A/C (cellular lamin cleavage assay)
Settings: SKNAS cells, 3 µM staurosporine, six-hour treatment, no inhibitor
Procedure: The following day, cell culture medium was aspirated and replaced with 20 µl/well basal medium (DMEM with no supplements added). […] 5 µl of diluted inhibitor was delivered to each well and incubated for 30 minutes in a cell culture incubator prior to addition of 5 µl/well staurosporine in basal medium. The final DMSO concentration in the assay was 0.1% and the final staurosporine concentration was 3 µM (or indicated concentration). […] Cells were permeabilized by the addition of 50 µl 0.2% Triton X-100 in PBS for 15 minutes at room temperature. […] The following day, primary antibody was aspirated and the wells washed 3 times with 100 µl TBST. Secondary antibody (donkey anti-rabbit IgG, HRP-conjugated (GE Healthcare #NA934V)) was delivered at 1∶2500 dilution in blocking agent (20 µl/well) and incubated 1 hour at room temperature.
In order to develop an assay more amenable to inhibitor screening, this antibody detection was adapted to a plate-based non-denaturing assay. SKNAS cells cultured in 384-well plates were treated with 3 µM staurosporine for six hours prior to fixation with 4% paraformaldehyde and permeabilization with 0.2% Triton X-100. Binding of the two antibodies that recognize neo-epitopes on the large or small lamin degradation products was detected by horseradish-peroxidase-labeled secondary antibody and subsequent chemiluminescent substrate addition (see methods for details).

Q: `CN[C@@H]1C[C@H]2O[C@@](C)([C@@H]1OC)n1c3ccccc3c3c4c(c5c6ccccc6n2c5c31)C(=O)NC4` [staurosporine] was tested. Which “signal:background ratio of lamin A/C degradation” value did it give?
A: 8.8 fold

Same assay, conditions: SKNAS cells, inhibitor 30 min before 3 µM staurosporine for 6 hours; small lamin A/C cleavage product

Q: With `CC(=O)N[C@@H](CC(=O)O)C(=O)N[C@@H](CCC(=O)O)C(=O)N[C@H](C(=O)N[C@H](C=O)CC(=O)O)C(C)C` [Ac-DEVD-CHO] as the molecule, how does the IC50 read?
A: > 100 µM

Q: How did the IC50 turn out when `CC(C)[C@H](NC(=O)c1ccc2ccccc2n1)C(=O)N[C@@H](CC(=O)O)C(=O)COc1c(F)cccc1F` [Q-VD-OPh] was run?
A: 0.94 µM

Q: `COC(=O)CC[C@H](NC(=O)[C@H](CC(=O)OC)NC(=O)OCc1ccccc1)C(=O)N[C@H](C(=O)N[C@@H](CC(=O)OC)C(=O)CF)C(C)C` [z-DEVD-FMK] was tested. Which IC50 did it give?
A: > 100 µM

Same assay, conditions: SKNAS cells, inhibitor concentrations up to 100 µM, 3 µM staurosporine for 6 hours

Q: `CC(=O)N[C@@H](CC(=O)O)C(=O)N[C@@H](CCC(=O)O)C(=O)N[C@H](C(=O)N[C@H](C=O)CC(=O)O)C(C)C` [Ac-DEVD-CHO] was tested. Which “activity in the cellular lamin degradation assay” value did it give?
A: inactive in lamin degradation assay

Q: With `CC[C@H](C)[C@H](NC(=O)[C@H](CCC(=O)O)NC(=O)[C@@H](NC(C)=O)C(C)C)C(=O)N[C@H](C=O)CC(=O)O` [Ac-VEID-CHO] (Ac-VEID-aldehyde) as the molecule, how does the “activity in the cellular lamin degradation assay” value read?
A: lacks any activity in the cellular assay

Same assay, conditions: cellular lamin cleavage IC50 versus enzymatic caspase-6 IC50

Q: For `CC(C)[C@H](NC(=O)c1ccc2ccccc2n1)C(=O)N[C@@H](CC(=O)O)C(=O)COc1c(F)cccc1F` [Q-VD-OPh], which “fold lower potency in cellular lamin assay than in enzymatic assay” value is on record?
A: 6 fold

Tested on: SKNAS cells
Experiment: Mass spectrometry analysis of intracellular inhibitor accumulation
Settings: 10 µM inhibitor, 1 hour at 37°C, LC/MS/MS
Procedure: SKNAS cells were seeded in 12-well plates at a concentration of 5×10^6 cells/mL and allowed to adhere overnight prior to the experiment. Caspase inhibitors (10 µM) in Hank's balance Salt Solution (HBSS; Invitrogen) buffer containing 10 mM HEPES (Invitrogen) and a final DMSO concentration of 0.1% were added in triplicate to the cells. Non specific binding (NSB) samples were prepared by immediately aspirating the dose solution and washing the cells with 1 mL of ice cold HBSS. Cells for the accumulation experiment were incubated for 1 hour at 37°C with inhibitors prior to washing with 1 mL ice cold HBSS. Analytical internal standard (200 nM propranolol (Sigma) in 100% acetonitrile (ACN) with 0.1% formic acid) and blank HBSS buffer were sequentially added to the 12-well plates containing the NSB and accumulation samples. Reference samples for each inhibitor were made by adding internal standard to dose solution and cells incubated for 1 hour at 37°C. The cells from all experiments were scraped from the bottom of the 12 well plates, sonicated for approximately 30 minutes, and centrifuged for 10 minutes at 3000 x g prior to LC/MS/MS analysis.
The LC/MS/MS system consisted of an AB Sciex API4000 mass spectrometer (AB Sciex, Foster City, CA), an Aria LX2 multiplexing LC system (Thermo Fisher Scientific, Waltham, MA) and a CTC Analytics autosampler (Leap Technologies, Carrboro, NC). An ESI Spray source in the positive ion mode and multiple reaction monitoring (MRM) were used to quantitate peak areas. The LC separations were performed on a 50×2.0 mm Gemini C18 analytical column (Phenomenex, Torrance, CA). The mobile phases consisted of water with 0.1% formic acid (mobile phase A) and ACN with 0.1% formic acid (mobile phase B). Mass spectrometer data were processed using Analyst software version 1.4.2.

Q: How did the “% cell accumulation” value turn out when `CC(C)[C@H](NC(=O)c1ccc2ccccc2n1)C(=O)N[C@@H](CC(=O)O)C(=O)COc1c(F)cccc1F` [Q-VD-OPh] was run?
A: 1.72%

Target: T3, Caspase-7 (Homo sapiens, UniProt P55210)
T3 sequence (P55210 24-198 limits assumed): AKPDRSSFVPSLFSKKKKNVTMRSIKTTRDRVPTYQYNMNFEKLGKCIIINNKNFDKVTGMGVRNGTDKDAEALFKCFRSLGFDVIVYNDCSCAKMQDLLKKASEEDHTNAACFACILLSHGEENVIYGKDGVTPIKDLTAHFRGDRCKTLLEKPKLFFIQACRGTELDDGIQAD
T3 sequence (P55210 207-303 limits assumed): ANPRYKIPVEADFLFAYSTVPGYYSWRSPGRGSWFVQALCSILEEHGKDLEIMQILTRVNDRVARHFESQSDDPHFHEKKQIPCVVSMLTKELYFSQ
Experiment: Enzymatic caspase activity assay, (Ac-DEVD)2-Rh110 substrate
Settings: read-out: Mean IC50 Caspase-7; apparent IC50; 15 minute preincubation and 40 minute reaction; 5 pM caspase-7, 1 µM (Ac-DEVD)2-Rh110
Procedure: as §1

Q: For `CC(=O)N[C@@H](CC(=O)O)C(=O)N[C@@H](CCC(=O)O)C(=O)N[C@H](C(=O)N[C@H](C=O)CC(=O)O)C(C)C` [Ac-DEVD-CHO], which IC50 is on record?
A: 3.7 nM

Q: With `CC[C@H](C)[C@H](NC(=O)[C@H](CCC(=O)O)NC(=O)[C@@H](NC(C)=O)C(C)C)C(=O)N[C@H](C=O)CC(=O)O` [Ac-VEID-CHO] (Ac-VEID-aldehyde) as the molecule, how does the IC50 read?
A: 162 nM

Q: For `COC(=O)CC[C@H](NC(=O)[C@H](CC(=O)OC)NC(=O)OCc1ccccc1)C(=O)N[C@H](C(=O)N[C@@H](CC(=O)OC)C(=O)CF)C(C)C` [z-DEVD-FMK], which IC50 is on record?
A: 98.5 nM

Target: T4, Caspase-3 (Homo sapiens, UniProt P42574)
T4 construct: made in house; host or cells: E. coli
T4 sequence (P42574 29-175 limits assumed): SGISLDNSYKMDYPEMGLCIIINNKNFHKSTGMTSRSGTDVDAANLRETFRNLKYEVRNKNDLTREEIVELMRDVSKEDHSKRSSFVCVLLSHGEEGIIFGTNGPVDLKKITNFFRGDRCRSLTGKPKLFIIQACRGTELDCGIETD
T4 sequence (P42574 176-277 limits assumed): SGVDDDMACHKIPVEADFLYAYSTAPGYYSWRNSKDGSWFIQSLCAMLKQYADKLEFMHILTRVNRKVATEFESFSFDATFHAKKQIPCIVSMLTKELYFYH
Experiment: as above
Format: biochemical
Settings: apparent IC50; 15 minute preincubation and 40 minute reaction; 300 pM caspase-3, 1 µM (Ac-DEVD)2-Rh110
Procedure: as §1

Q: Which IC50 does the source give for `CC[C@H](C)[C@H](NC(=O)[C@H](CCC(=O)O)NC(=O)[C@@H](NC(C)=O)C(C)C)C(=O)N[C@H](C=O)CC(=O)O` [Ac-VEID-CHO] (Ac-VEID-aldehyde) here?
A: 13.6 nM
